These compounds were tested against PI3K delta (Homo sapiens (Human), UniProt O00329) (assay: Luciferase-coupled chemiluminescence kinase assay (KinaseGlo, ATP consumption)).
Type: biochemical
Summary of the method: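 Kinase, compound and ATP (at or below KM) reacted 2 h at ambient temperature; remaining ATP detected by KinaseGlo luciferase chemiluminescence as percent ATP consumed. 10-point dose-response, curves fitted to give IC50.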

PI3K delta, sequence (O00329 whole entry): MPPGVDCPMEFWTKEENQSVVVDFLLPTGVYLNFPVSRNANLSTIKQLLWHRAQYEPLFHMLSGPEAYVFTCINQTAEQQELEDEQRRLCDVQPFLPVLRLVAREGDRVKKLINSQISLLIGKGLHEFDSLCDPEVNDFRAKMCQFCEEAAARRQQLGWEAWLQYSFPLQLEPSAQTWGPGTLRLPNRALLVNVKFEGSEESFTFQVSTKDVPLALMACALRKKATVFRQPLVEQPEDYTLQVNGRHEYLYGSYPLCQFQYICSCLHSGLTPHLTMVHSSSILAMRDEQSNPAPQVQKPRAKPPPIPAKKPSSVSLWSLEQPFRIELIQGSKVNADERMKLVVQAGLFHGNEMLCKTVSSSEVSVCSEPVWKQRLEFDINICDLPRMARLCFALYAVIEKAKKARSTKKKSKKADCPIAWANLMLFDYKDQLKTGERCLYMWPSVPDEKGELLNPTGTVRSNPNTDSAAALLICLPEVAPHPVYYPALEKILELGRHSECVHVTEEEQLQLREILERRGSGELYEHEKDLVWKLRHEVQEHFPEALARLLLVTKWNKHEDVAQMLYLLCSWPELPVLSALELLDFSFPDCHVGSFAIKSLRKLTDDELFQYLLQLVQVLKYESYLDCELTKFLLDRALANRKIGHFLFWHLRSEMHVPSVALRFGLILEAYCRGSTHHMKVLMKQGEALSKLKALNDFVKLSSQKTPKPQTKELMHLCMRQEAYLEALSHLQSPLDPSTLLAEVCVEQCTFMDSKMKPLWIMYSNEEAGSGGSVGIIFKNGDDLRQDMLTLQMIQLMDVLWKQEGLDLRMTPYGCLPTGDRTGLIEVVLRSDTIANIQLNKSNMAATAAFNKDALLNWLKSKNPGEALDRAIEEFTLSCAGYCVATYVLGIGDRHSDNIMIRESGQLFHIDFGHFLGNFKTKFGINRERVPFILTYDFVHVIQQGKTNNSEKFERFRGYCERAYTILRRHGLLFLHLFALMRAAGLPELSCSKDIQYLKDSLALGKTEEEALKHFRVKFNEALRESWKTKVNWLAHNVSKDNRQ
PI3K delta, sequence (P27986 whole entry partner): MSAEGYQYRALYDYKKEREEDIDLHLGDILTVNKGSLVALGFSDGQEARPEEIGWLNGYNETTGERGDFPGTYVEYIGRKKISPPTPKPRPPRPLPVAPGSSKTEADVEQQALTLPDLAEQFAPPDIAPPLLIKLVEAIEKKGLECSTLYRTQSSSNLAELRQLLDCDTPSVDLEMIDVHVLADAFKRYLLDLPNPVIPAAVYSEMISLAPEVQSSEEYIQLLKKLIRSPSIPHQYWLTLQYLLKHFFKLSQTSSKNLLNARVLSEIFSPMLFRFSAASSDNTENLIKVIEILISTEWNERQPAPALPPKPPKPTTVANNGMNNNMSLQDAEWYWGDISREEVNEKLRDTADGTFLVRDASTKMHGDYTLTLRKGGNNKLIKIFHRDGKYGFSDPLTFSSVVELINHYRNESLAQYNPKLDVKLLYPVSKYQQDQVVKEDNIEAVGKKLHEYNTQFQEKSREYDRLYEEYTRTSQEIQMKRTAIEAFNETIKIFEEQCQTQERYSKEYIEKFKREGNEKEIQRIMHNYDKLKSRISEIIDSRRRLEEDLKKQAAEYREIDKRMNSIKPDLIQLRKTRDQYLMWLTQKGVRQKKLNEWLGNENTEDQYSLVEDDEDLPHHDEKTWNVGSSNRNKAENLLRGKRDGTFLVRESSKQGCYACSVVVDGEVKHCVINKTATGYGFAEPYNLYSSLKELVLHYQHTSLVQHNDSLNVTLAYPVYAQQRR

IC50 [nM] | Structure (SMILES)
500 to 1500 | Cc1ccccc1-c1nc2ccccc2cc1Cn1cnc2c(N)ncnc21 [Compound 191, 9-{[2-(2-methylphenyl)quinolin-3-yl]methyl}-9H-purin-6-amine]
500 to 1500 | Cc1ccccc1-c1cc2ccccc2nc1Cn1cnc2c(N)ncnc21 [Compound 179, 9-{[3-(2-methylphenyl)quinolin-2-yl]methyl}-9H-purin-6-amine]
500 to 1500 | Cc1ccccc1-c1cc2ccccc2nc1CNc1ncnc2[nH]nc(Br)c12 [Compound 141, 3-bromo-N-{[3-(2-methylphenyl)quinolin-2-yl]methyl}-1H-pyrazolo[3,4-d]primidin-4-amine]
< 50 | Cc1cccc2cc(CNC(=O)c3nccnc3N)c(N(C)CCN(C)C(=O)Cn3ccnn3)nc12 [Compound 100, 3-amino-N-{[8-methyl-2-(methyl{2-[methyl(1H-1,2,3-triazol-1-ylacetyl)amino]ethyl}amino)quinolin-3-yl]methyl}pyrazine-2-carboxamide]
250 to 500 | CNCCN(C)c1nc2c(C)cccc2cc1CNC(=O)c1nccnc1N [Compound 130, 3-amino-N-[(8-methyl-2-{methyl[2-(methylamino)ethyl]amino}quinolin-3-yl)methyl]pyrazine-2-carboxamide]
500 to 1500 | Cc1ccccc1-c1cc2ccccc2nc1CNC(=O)c1ncc(N2CCOCC2)nc1N [Compound 105, 3-amino-N-{[3-(2-methylphenyl)quinolin-2-yl]methyl}-5-morpholin-4-ylpyrazine-2-carboxamide]
50 to 250 | Cc1cccc2cc(CNC(=O)c3nccnc3N)c(N(C)CCO)nc12 [Compound 121, 3-amino-N-({2-[(2-hydroxyethyl)(methyl)amino]-8-methylquinolin-3-yl}methyl)pyrazine-2-carboxamide]
500 to 1500 | Cc1cccc2cc(CNc3cccc4c3OCCO4)c(-c3ccccc3Cl)nc12 [Compound 5]
< 50 | Cc1cccc2cc(Cn3cnc4c(N)ncnc43)c(N(C)CCN(C)C(=O)Cn3cccn3)nc12 [Compound 28, N-{2-[{3-[(6-amino-9H-purin-9-yl)methyl]-8-methylquinolin-2-yl}(methyl)amino]ethyl}-N-methyl-2-(1H-pyrazol-1-yl)acetamide]
250 to 500 | Cc1cccc(-c2nc3c(C)cccc3cc2Cn2cnc3c(N)ncnc32)c1 [Compound 183, 9-{[8-methyl-2-(3-methylphenyl)quinolin-3-yl]methyl}-9H-purin-6-amine]
50 to 250 | Cc1cccc2cc(CNC(=O)c3nccnc3N)c(N(C)C3CCN(C)C3)nc12 (stereo not shown) [Compound 98, 3-amino-N-({8-methyl-2-[methyl(1-methylpyrrolidin-3-yl)amino]quinolin-3-yl}methyl)pyrazine-2-carboxamide]
500 to 1500 | Cc1cccc2cc(CNC(=O)c3nccnc3N)c(-n3cnc4ccccc43)nc12 [Compound 112, 3-amino-N-{[2-(1H-benzimidazol-1-yl)-8-methylquinolin-3-yl]methyl}pyrazine-2-carboxamide]
250 to 500 | Cc1cccc2cc(CNC(=O)c3nccnc3N)c(N3CCCNCC3)nc12 [Compound 139, 3-amino-N-{[2-(1,4-diazepan-1-yl)-8-methylquinolin-3-yl]methyl}pyrazine-2-carboxamide]
500 to 1500 | COCCNc1nc2c(C)cccc2cc1Cn1cnc2c(N)ncnc21 [Compound 167, 3-[(6-amino-9H-purin-9-yl)methyl]-8-methyl-N-[2-(methyloyx)ethyl]quinolin-2-amine]
50 to 250 | CNCCCN(C)c1nc2c(C)cccc2cc1CNC(=O)c1nccnc1N [Compound 133, 3-amino-N-[(8-methyl-2-{methyl[3-(methylamino)propyl]amino}quinolin-3-yl)methyl]pyrazine-2-carboxamide]
250 to 500 | Cc1ccccc1-c1cc2ccccc2nc1C(C)NC(=O)c1nccnc1N (stereo not shown) [Compound 75, 3-amino-N-{1-[3-(2-methylphenyl)quinolin-2-yl]ethyl}pyrazine-2-carboxamide]
50 to 250 | Cc1cccc2cc(CNC(=O)c3nccnc3N)c(N(C)CCN(C)C(=O)[C@@H]3CCCN3C)nc12 [Compound 113, 3-amino-N-{[8-methyl-2-(methyl{2-[methyl(1-methyl-L-prolyl)amino]ethyl}amino)quinolin-3-yl]methyl}pyrazine-2-carboxamide]
< 50 | Cc1nc(C)n(CC(=O)N(C)CCN(C)c2nc3c(C)cccc3cc2CNC(=O)c2nccnc2N)n1 [Compound 43, 3-amino-N-({2-[(2-{[(3,5-dimethyl-1H-1,2,4-triazol-1-yl)acetyl](methyl)amino}ethyl)(methyl)amino]-8-methylquinolin-3-yl}methyl)pyrazine-2-carboxamide]

IC50 [nM] | Structure (SMILES)
500 to 1500 | Cc1cccc2cc(CNC(=O)c3nccnc3N)c(N3CCCN(C(=O)Cn4cnc5ccccc54)CC3)nc12 [Compound 53, 3-amino-N-({2-[4-(1H-benzimidazol-1-ylacetyl)-1,4-diazepan-1-yl]-8-methylquinolin-3-yl}methyl)pyrazine-2-carboxamide]
250 to 500 | Cc1cccc2cc(CNC(=O)c3nccnc3N)c(N3CCCN(C(=O)CN(C)C)CC3)nc12 [Compound 137, 3-amino-N-({2-[4-(N,N-dimethylglycyl)-1,4-diazepan-1-yl]-8-methylquinolin-3-yl}methyl}pyrazine-2-carboxamide]
500 to 1500 | Cc1ccc(CN2CCCN(c3nc4c(C)cccc4cc3CNC(=O)c3nccnc3N)CC2)o1 [Compound 58, 3-amino-N-[(8-methyl-2-{4-[(5-methylfuran-2-yl)methyl]-1,4-diazepan-1-yl}quinolin-3-yl)methyl]pyrazine-2-carboxamide]
250 to 500 | Cc1cccc2cc(CNC(=O)c3nccnc3N)c(N3CC(C)NC[C@H]3C)nc12 (stereo in doubt) [Compound 123, 3-amino-N-({2-[(2R,5S)-2,5-dimethylpiperazin-1-yl]-8-methylquinolin-3-yl}methyl)pyrazine-2-carboxamide]
500 to 1500 | Cc1cccc2cc(CNC(=O)c3nccnc3N)c(N3CCC(NC(=O)Cn4ccnn4)C3)nc12 (stereo not shown) [Compound 45, 3-amino-N-[(8-methyl-2-{3-[(1H-1,2,3-triazol-1-ylacetyl)amino]pyrrolidin-1-yl}quinolin-3-yl)methyl]pyrazine-2-carboxamide]
< 50 | CNCCN(C)c1nc2c(C)cccc2cc1CNc1ncnc2[nH]cnc12 [Compound 36, N,N′-dimethyl-N-{8-methyl-3-[(9H-purin-6-ylamino)methyl]quinolin-2-yl}ethane-1,2-diamine]
500 to 1500 | Cc1ccccc1-c1cc2ccccc2cc1Cn1cnc2c(N)ncnc21 [Compound 120, 9-{[3-(2-methylphenyl)naphthalen-2-yl]methyl}-9H-purin-6-amine]
50 to 250 | Cc1cccc2cc(CNC(=O)c3nccnc3N)c(N(C)CCN(C)C(=O)c3cncn3C)nc12 [Compound 110, 3-amino-N-({8-methyl-2-[methyl(2-{methyl[(1-methyl-1H-imidazol-5-yl)carbonyl]amino}ethyl)amino]quinolin-3-yl}methyl)pyrazine-2-carboxamide]
500 to 1500 | Cc1cccc2cc(CNC(=O)c3nccnc3N)c(NCc3cccnc3)nc12 [Compound 95, 3-amino-N-({8-methyl-2-[(pyridin-3-ylmethyl)amino]quinolin-3-yl}methyl)pyrazine-2-carboxamide]
50 to 250 | CNCC(=O)N(C)CCN(C)c1nc2c(C)cccc2cc1CNC(=O)c1nccnc1N [Compound 116, 3-amino-N-{[8-methyl-2-(methyl{2-[methyl(N-methylglycyl)amino]ethyl}amino)quinolin-3-yl]methyl}pyrazine-2-carboxamide]
500 to 1500 | Cc1cccc2cc(CNC(=O)c3nccnc3N)c(NCCc3cccnc3)nc12 [Compound 97, 3-amino-N-({8-methyl-2-[(2-pyridin-3-ylethyl)amino]quinolin-3-yl}methyl)pyrazine-2-carboxamide]
500 to 1500 | Cc1cccc2cc(CNC(=O)c3nccnc3N)c(N3CCCN(C(=O)Cn4nccn4)CC3)nc12 [Compound 61, 3-amino-N-({8-methyl-2-[4-(2H-1,2,3-triazol-2-ylacetyl)-1,4-diazepan-1-yl]quinolin-3-yl}methyl)pyrazine-2-carboxamide]
50 to 250 | Cc1cccc2cc(CNC(=O)c3nccnc3N)c(N(C)CCN(C)S(C)(=O)=O)nc12 [Compound 101, 3-amino-N-{[8-methyl-2-(methyl{2-[methyl(methylsulfonyl)amino]ethyl}amino)quinolin-3-yl]methyl}pyrazine-2-carboxamide]
500 to 1500 | Cc1cccc2cc(Cn3cnc4c(N)ncnc43)c(N3CC4CC3CN4C)nc12 (stereo not shown) [Compound 150, 9-{[8-methyl-2-(5-methyl-2,5-diazabicyclo[2.2.1]hept-2-yl)quinolin-3-yl]methyl}-9H-purin-6-amine]
500 to 1500 | Cc1cccc2cc(Cn3cnc4c(N)ncnc43)c(NC3CCOCC3)nc12 [Compound 165, 3-[(6-amino-9H-purin-9-yl)methyl]-8-methyl-N-(tetrahydro-2H-pyran-4-yl)quinolin-2-amine]
250 to 500 | Cc1cccc2cc(CNC(=O)c3nccnc3N)c(N(C)CCN(C)C(=O)c3ccccn3)nc12 [Compound 81, 3-amino-N-{[8-methyl-2-(methyl{2-[methyl(pyridin-2-ylcarbonyl)amino]ethyl}amino)quinolin-3-yl]methyl}pyrazine-2-carboxamide]
500 to 1500 | Nc1nccnc1C(=O)NCc1nc2ccccc2cc1-c1ccc(CN2CCOCC2)cc1 [Compound 71, 3-amino-N-({3-[4-(morpholin-4-ylmethyl)phenyl]quinolin-2-yl}methyl)pyrazine-2-carboxamide]

Structure (SMILES) | IC50 [nM]
Cc1cccc2cc(CNC(=O)c3nccnc3N)c(N(C)C3CCN(C)CC3)nc12 [Compound 99, 3-amino-N-({8-methyl-2-[methyl(1-methylpiperidin-4-yl)amino]quinolin-3-yl}methyl)pyrazine-2-carboxamide] | 50 to 250
Cc1ccccc1-n1c(CNC(=O)c2nccnc2N)nc2cccc(C)c2c1=O [Compound 175, 3-amino-N-{[5-methyl-3-(2-methylphenyl)-4-oxo-3,4-dihydroquinazolin-2-yl]methyl}pyrazine-2-carboxamide] | < 50

Source: patent publication US9670212B2, “Inhibitors of PI3K-delta and methods of their use and manufacture” (Exelixis, Inc., priority 2010, dated 2017)
